Assay results reported in the NIST ThermoML archive (doi:10.1016/j.tca.2012.12.008).
± gives the expanded uncertainty stated by the source.

Tests used:
[1] = 101 kPa, Liquid; for viscosity: Capillary tube (Ostwald / Ubbelohde) method; for mass density: Vibrating tube method
[2] = xn = mol fraction of the nth substance listed; conditions: 101 kPa, Liquid; for viscosity: Capillary tube (Ostwald / Ubbelohde) method; for mass density: Vibrating tube method

| Structure (SMILES) | viscosity ([1]; 298.15 K) [mPa·s] | mass density ([1]; 298.15 K) [kg/m3] | viscosity ([1]; 303.15 K) [mPa·s] | mass density ([1]; 303.15 K) [kg/m3] | viscosity ([1]; 308.15 K) [mPa·s] | mass density ([1]; 308.15 K) [kg/m3] | viscosity ([1]; 313.15 K) [mPa·s] | mass density ([1]; 313.15 K) [kg/m3] | further results |
| --- | --- | --- | --- | --- | --- | --- | --- | --- | --- |
| CCCCCC(C)O (stereo not drawn) [2-heptanol] | 5.003 ± 0.037 | 813.18 ± 0.24 | 4.152 ± 0.031 | 809.26 ± 0.24 | 3.478 ± 0.026 | 805.01 ± 0.24 | 2.853 ± 0.022 | 801.14 ± 0.24 | – |
| CCCCC(C)O (stereo not drawn) [2-hexanol] | 4.101 ± 0.031 | 810.14 ± 0.24 | 3.411 ± 0.026 | 806.13 ± 0.24 | 2.819 ± 0.021 | 802.06 ± 0.24 | 2.219 ± 0.017 | 797.96 ± 0.24 | – |
| CCC(C)O (stereo not drawn) [butan-2-ol] | 3.105 ± 0.023 | 802.7 ± 0.24 | 2.597 ± 0.02 | 798.3 ± 0.24 | 2.153 ± 0.016 | 793.57 ± 0.24 | 1.734 ± 0.013 | 789.15 ± 0.24 | – |
| CCC(C)O (stereo not drawn) [butan-2-ol] + CCC(C)=O | – | – | – | – | – | – | – | – | viscosity ([2]; 298.15 K, x2 = 0): 3.105 ± 0.023 mPa·s; mass density ([2]; 298.15 K, x2 = 0): 802.7 ± 0.24 kg/m3; viscosity ([2]; 303.15 K, x2 = 0): 2.597 ± 0.02 mPa·s; mass density ([2]; 303.15 K, x2 = 0): 798.3 ± 0.24 kg/m3; viscosity ([2]; 308.15 K, x2 = 0): 2.153 ± 0.016 mPa·s; mass density ([2]; 308.15 K, x2 = 0): 793.57 ± 0.24 kg/m3; viscosity ([2]; 313.15 K, x2 = 0): 1.734 ± 0.013 mPa·s; mass density ([2]; 313.15 K, x2 = 0): 789.15 ± 0.24 kg/m3 |
| CCC(C)=O [butanone] | 0.381 ± 0.004 | 799.48 ± 0.24 | 0.368 ± 0.004 | 794.63 ± 0.24 | 0.352 ± 0.004 | 789.9 ± 0.24 | 0.339 ± 0.004 | 785.52 ± 0.24 | – |
| CCC(C)=O [butanone] + CCCC(C)O | – | – | – | – | – | – | – | – | viscosity ([2]; 298.15 K, x1 = 1): 0.381 ± 0.004 mPa·s; mass density ([2]; 298.15 K, x1 = 1): 799.48 ± 0.24 kg/m3; viscosity ([2]; 303.15 K, x1 = 1): 0.368 ± 0.004 mPa·s; mass density ([2]; 303.15 K, x1 = 1): 794.63 ± 0.24 kg/m3; viscosity ([2]; 308.15 K, x1 = 1): 0.352 ± 0.004 mPa·s; mass density ([2]; 308.15 K, x1 = 1): 789.9 ± 0.24 kg/m3; viscosity ([2]; 313.15 K, x1 = 1): 0.339 ± 0.004 mPa·s; mass density ([2]; 313.15 K, x1 = 1): 785.52 ± 0.24 kg/m3 |
| CCC(C)=O [butanone] + CCCCC(C)O | – | – | – | – | – | – | – | – | viscosity ([2]; 298.15 K, x1 = 1): 0.381 ± 0.004 mPa·s; mass density ([2]; 298.15 K, x1 = 1): 799.48 ± 0.24 kg/m3; viscosity ([2]; 303.15 K, x1 = 1): 0.368 ± 0.004 mPa·s; mass density ([2]; 303.15 K, x1 = 1): 794.63 ± 0.24 kg/m3; viscosity ([2]; 308.15 K, x1 = 1): 0.352 ± 0.004 mPa·s; mass density ([2]; 308.15 K, x1 = 1): 789.9 ± 0.24 kg/m3; viscosity ([2]; 313.15 K, x1 = 1): 0.339 ± 0.004 mPa·s; mass density ([2]; 313.15 K, x1 = 1): 785.52 ± 0.24 kg/m3 |
| CCC(C)=O [butanone] + CCCCCC(C)O | – | – | – | – | – | – | – | – | viscosity ([2]; 298.15 K, x1 = 1): 0.381 ± 0.004 mPa·s; mass density ([2]; 298.15 K, x1 = 1): 799.48 ± 0.24 kg/m3; viscosity ([2]; 303.15 K, x1 = 1): 0.368 ± 0.004 mPa·s; mass density ([2]; 303.15 K, x1 = 1): 794.63 ± 0.24 kg/m3; viscosity ([2]; 308.15 K, x1 = 1): 0.352 ± 0.004 mPa·s; mass density ([2]; 308.15 K, x1 = 1): 789.9 ± 0.24 kg/m3; viscosity ([2]; 313.15 K, x1 = 1): 0.339 ± 0.004 mPa·s; mass density ([2]; 313.15 K, x1 = 1): 785.52 ± 0.24 kg/m3 |
| CCCC(C)O (stereo not drawn) [pentan-2-ol] | 3.478 ± 0.026 | 805.41 ± 0.24 | 2.801 ± 0.021 | 801.21 ± 0.24 | 2.335 ± 0.018 | 796.64 ± 0.24 | 1.993 ± 0.015 | 792.51 ± 0.24 | – |
| CC(C)O [propan-2-ol] | 2.055 ± 0.016 | 781.09 ± 0.24 | 1.788 ± 0.014 | 776.77 ± 0.24 | 1.563 ± 0.012 | 771.87 ± 0.24 | 1.379 ± 0.011 | 767.37 ± 0.24 | – |
| CC(C)O [propan-2-ol] + CCC(C)=O | – | – | – | – | – | – | – | – | viscosity ([2]; 298.15 K, x2 = 0): 2.055 ± 0.016 mPa·s; mass density ([2]; 298.15 K, x2 = 0): 781.09 ± 0.24 kg/m3; viscosity ([2]; 303.15 K, x2 = 0): 1.788 ± 0.014 mPa·s; mass density ([2]; 303.15 K, x2 = 0): 776.77 ± 0.24 kg/m3; viscosity ([2]; 308.15 K, x2 = 0): 1.563 ± 0.012 mPa·s; mass density ([2]; 308.15 K, x2 = 0): 771.87 ± 0.24 kg/m3; viscosity ([2]; 313.15 K, x2 = 0): 1.379 ± 0.011 mPa·s; mass density ([2]; 313.15 K, x2 = 0): 767.37 ± 0.24 kg/m3 |
